Measurements published in the NIST ThermoML archive (doi:10.1021/je800110r).

Details: 303.16 K, Liquid, Vibrating tube method

CCCCCCCCCC [decane]
Details | mass density [kg/m3]
14288 kPa | 733.4
14319 kPa | 733.4
14353 kPa | 733.4
14376 kPa | 733.5
14407 kPa | 733.3
14434 kPa | 733.6
14457 kPa | 733.5
14493 kPa | 733.5
14524 kPa | 733.5
14547 kPa | 733.5
14586 kPa | 733.6
14617 kPa | 733.7
14640 kPa | 733.8
14673 kPa | 733.7
14705 kPa | 733.6
14734 kPa | 733.7
14767 kPa | 733.7
14792 kPa | 733.7
14822 kPa | 733.6
14848 kPa | 733.7
14871 kPa | 733.8
14896 kPa | 733.8
14923 kPa | 733.7
14942 kPa | 734
14976 kPa | 734
14997 kPa | 733.8
15016 kPa | 733.9
15041 kPa | 733.8
15066 kPa | 734
15088 kPa | 733.9
15110 kPa | 734
15133 kPa | 734
15151 kPa | 734
15180 kPa | 734
15209 kPa | 734.1
15228 kPa | 734.1
15257 kPa | 734.1
15283 kPa | 733.9
15302 kPa | 734.1
15329 kPa | 734.1
15355 kPa | 734.2
15378 kPa | 734.3
15404 kPa | 734.2
15434 kPa | 734.3
15454 kPa | 734.3
15481 kPa | 734.3
15504 kPa | 734.2
15524 kPa | 734.3
15557 kPa | 734.3
15584 kPa | 734.2
15605 kPa | 734.4
15639 kPa | 734.4
15669 kPa | 734.3
15690 kPa | 734.4
15720 kPa | 734.3
15744 kPa | 734.5
15769 kPa | 734.4
15790 kPa | 734.3
15814 kPa | 734.5
15838 kPa | 734.6
15867 kPa | 734.4
15889 kPa | 734.5
15918 kPa | 734.5
15947 kPa | 734.5
15968 kPa | 734.6
15997 kPa | 734.6
16029 kPa | 734.6
16050 kPa | 734.6
16076 kPa | 734.7
16098 kPa | 734.8
16123 kPa | 734.7
16149 kPa | 734.7
16172 kPa | 734.7
16206 kPa | 734.6
16237 kPa | 734.7
16261 kPa | 734.7
16288 kPa | 734.7
16311 kPa | 734.9
16331 kPa | 734.8
16355 kPa | 734.9
16372 kPa | 734.9
16395 kPa | 734.8
16413 kPa | 734.8
16443 kPa | 734.9
16470 kPa | 735
16490 kPa | 735.1
16511 kPa | 734.9
16531 kPa | 735.1
16553 kPa | 735
16574 kPa | 734.9
16600 kPa | 735
16618 kPa | 735.1
16642 kPa | 735
16661 kPa | 734.8
16691 kPa | 735.2
16715 kPa | 735
16733 kPa | 735.2
16758 kPa | 735.1
16785 kPa | 735.2
16800 kPa | 735.2
16831 kPa | 735.2
16853 kPa | 735.2
16878 kPa | 735.1
16902 kPa | 735.2
16924 kPa | 735.2
16940 kPa | 735.2
16968 kPa | 735.3
16994 kPa | 735.3
17016 kPa | 735.3
17041 kPa | 735.4
17063 kPa | 735.4
17084 kPa | 735.4
17107 kPa | 735.3
17129 kPa | 735.4
17149 kPa | 735.5
17181 kPa | 735.4
17207 kPa | 735.3
17225 kPa | 735.6
17252 kPa | 735.5
17278 kPa | 735.6
17298 kPa | 735.5
17331 kPa | 735.5
17354 kPa | 735.5
17377 kPa | 735.5
17400 kPa | 735.5
17419 kPa | 735.5
17449 kPa | 735.7
17479 kPa | 735.7
17503 kPa | 735.7
17533 kPa | 735.6
17557 kPa | 735.7
17581 kPa | 735.7
17601 kPa | 735.8
17625 kPa | 735.8
17645 kPa | 735.7
17673 kPa | 735.9
